Read-outs that look alike come from different tables or passages of the source.
Experiments:
Mcl-1 [1] = target: T1, Mcl-1 (Mus musculus, UniProt P97287, F227L/F267C/G222D/K236S/Q303E/S261T/T274S/V232I/V262I); experiment: FITC-NoxaB Mcl-1 competitive binding fluorescence anisotropy
Mcl-1 [2] = target: T1, Mcl-1; settings: Mcl-1/Noxa; parent peptide; cited from earlier work

T1 sequence (P97287 152-308 G222D/F227L/V232I/K236S/S261T/V262I/F267C/T274S/Q303E): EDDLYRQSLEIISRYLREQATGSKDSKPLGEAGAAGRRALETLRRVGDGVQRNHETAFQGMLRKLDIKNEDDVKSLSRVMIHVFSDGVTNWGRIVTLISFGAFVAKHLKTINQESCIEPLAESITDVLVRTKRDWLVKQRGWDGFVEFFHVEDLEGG

CC(=O)O[C@@H]1[C@@H](OC(C)=O)[C@H](OC(C)=O)CO[C@H]1n1cc(-c2ccc(Cl)cc2)nn1 [compound 7, (2R,3R,4S,5R)-2-(4-(4-chlorophenyl)-1H-1,2,3-triazol-1-yl)tetrahydro-2H-pyran-3,4,5-triyl triacetate]
IC50 (Mcl-1 [1]): 4.39 µM

CC(=O)O[C@@H]1[C@@H](OC(C)=O)[C@H](OC(C)=O)CO[C@H]1n1cc(-c2ccc(Br)cc2)nn1 [compound 8, (2R,3R,4S,5R)-2-(4-(4-bromophenyl)-1H-1,2,3-triazol-1-yl)tetrahydro-2H-pyran-3,4,5-triyl triacetate]
IC50 (Mcl-1 [1]): 7.03 µM

AAQLRRIGDKVNLRQKLLN [NoxaB-(75–93)-C75A peptide]
IC50 (Mcl-1 [2]): 0.65 µM

From paper PMC8341744 (RSC Chemical Biology, 2020)
